The record followed here is article PMC8159961, “Exploring protein hotspots by optimized fragment pharmacophores” (Nature Communications, 2021).

In one assay the target is T1, human thrombin (Homo sapiens, UniProt P00734).
T1 construct: human thrombin; purchased Sigma-Aldrich
The experiment in a line: Protease inhibitory assay, chromogenic substrate S-2238. It is filed as biochemical. Particulars: for vinit: replicate values; for pKi: Thrombin, one of two values averaged in Supplementary Data 1, read-out: Ki.

The target of another assay is T2, bovine factor Xa (Bos taurus, UniProt P00743).
T2 construct: bovine factor Xa, Chromogenix, 2 nkat/mL; purchased Chromogenix
Nature of the assay: Protease inhibitory assay, chromogenic substrate S-2222. In kind it is biochemical. Particulars: cmpd conc 200 µM; for vinit: replicate values; for pKi: FactorXa, one of two values averaged in Supplementary Data 1, read-out: Ki.

[1] abbreviates: Thrombin primary screening, substrate 40 µM, cmpd conc 500 µM.
Where [2] appears, read: FactorXa primary screening, substrate 100 µM.
Setting [3] is: Thrombin Ki determination, substrate 20 µM, cmpd conc 200 µM.
The mark [4] stands for this setting: Thrombin Ki determination, substrate 40 µM, cmpd conc 200 µM.
Where [5] appears, read: substrate 20 µM, cmpd conc 200 µM.
Where [6] appears, read: substrate 40 µM, cmpd conc 200 µM.
Setting [7] is: FactorXa Ki determination, substrate 100 µM.
[8] abbreviates: FactorXa Ki determination, substrate 200 µM.

pKi: −log10 of the molar value. Several values for one entry are separate records, joined by “and”; a condition that tells them apart may be missing. Equal entries are not always repeated. Where two headings read alike, the source gives them in different places.

T2 sequence (P00743 234-492 limits assumed): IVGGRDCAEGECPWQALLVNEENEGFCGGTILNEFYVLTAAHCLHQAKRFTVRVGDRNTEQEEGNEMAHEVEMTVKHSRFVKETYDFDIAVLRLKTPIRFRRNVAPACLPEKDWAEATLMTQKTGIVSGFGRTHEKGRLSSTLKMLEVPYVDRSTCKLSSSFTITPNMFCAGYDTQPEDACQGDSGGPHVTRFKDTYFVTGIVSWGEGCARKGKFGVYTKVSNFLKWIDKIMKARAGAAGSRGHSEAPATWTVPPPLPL
T2 sequence (P00743 41-180 partner limits assumed): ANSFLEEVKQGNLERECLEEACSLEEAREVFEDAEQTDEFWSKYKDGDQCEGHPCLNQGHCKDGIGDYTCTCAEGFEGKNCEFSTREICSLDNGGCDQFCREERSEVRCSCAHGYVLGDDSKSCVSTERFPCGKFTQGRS

Consider `O=C1NC2(CCCC2)Nc2ccccc21` [SX-C9], for which the figures for the “V0 / Vi” value on human thrombin (setting [1]) and on bovine factor Xa (setting [2]) were 1.01 and 0.98, respectively. Also, the vinit at human thrombin (setting [1]) is 30.218 and 31.018; on bovine factor Xa (setting [2]) it was 18.873 and 17.6.
On to `O=C(c1ccncc1)N1CCNCC1` [SX-E2], for which the “V0 / Vi” value on human thrombin (setting [1]) is listed as 0.93; at bovine factor Xa (setting [2]) it was 0.96. For the same compound, the vinit is 31.236 and 31.673 at human thrombin (setting [1]); 17.673 and 18.8 at bovine factor Xa (setting [2]).
Consider `O=C(Nc1ccccc1)C1CC1` [SX-F6], for which, at human thrombin (setting [1]), the “V0 / Vi” value stood at 0.98; the vinit was 29.527 and 31.309. For the same compound, on bovine factor Xa (setting [2]), the “V0 / Vi” value is 0.98; the vinit was 18 and 17.071.
Turning to `Cc1cc(-c2ccccc2)n[nH]1` [SX-A8], on human thrombin (setting [1]), the “V0 / Vi” value stood at 0.97; the vinit is 32.036 and 32.145. Further, on bovine factor Xa (setting [2]), the “V0 / Vi” value is given as 0.98; the vinit is 19.236 and 17.164.
What is called pKi is the negative decadic logarithm of the Ki, by convention in mol/L. `O=C(O)c1cnc(-c2ccccc2)s1` [SX-F3]: the “V0 / Vi” value at human thrombin (setting [3]) turned out to be 1.08; at human thrombin (setting [4]) it was 1.05; at human thrombin (setting [1]) it was 1.06; at bovine factor Xa (setting [2]), 1.02. Besides, the entries for the “vinit, avrg.” value on human thrombin (setting [3]) and on human thrombin (setting [4]) were 24.620 and 32.167, respectively. Also, the vinit on human thrombin (setting [3]) was 23.206 and 25.134 and 25.52; on human thrombin (setting [4]) it was 32.686 and 32.577 and 31.24; on human thrombin (setting [1]), 26.545 and 28.873; at bovine factor Xa (setting [2]) it was 17.382 and 16.873. Besides, the pKi at human thrombin (setting [5]) is 3.53; at human thrombin (setting [6]) it was 3.61.
In the case of `O=C(O)c1cccc(Nc2ncccn2)c1` [SX-F5], at human thrombin (setting [1]), the “V0 / Vi” value was 1.09; the vinit was 26.836 and 28. For the same compound, at bovine factor Xa (setting [2]), the “V0 / Vi” value worked out at 0.98; the vinit was 17.143 and 18.071.
With `Cn1c(N)nc2ccccc21` [SX-A6], the “V0 / Vi” value stood at 0.93 at human thrombin (setting [1]), 1.48 at bovine factor Xa (setting [7]), 1.30 on bovine factor Xa (setting [8]) and 1.45 on bovine factor Xa (setting [2]). In addition, the vinit is 31.891 and 32.182 on human thrombin (setting [1]); 10.624 and 11.848 and 10.44 at bovine factor Xa (setting [7]); 28.578 and 28.05 and 27.32 on bovine factor Xa (setting [8]); 10.544 and 13.214 at bovine factor Xa (setting [2]). The “vinit, avrg.” value at bovine factor Xa (setting [7]) amounted to 10.970. For the same compound, the pKi on bovine factor Xa (substrate 100 µM) was 3.59; at bovine factor Xa (substrate 200 µM), 3.53.
Take `COc1cccc(NC2=NCCCCC2)c1` [SX-E8]: at human thrombin (setting [1]), the “V0 / Vi” value is 0.88; the vinit is 35.818 and 34.764. For the same compound, on bovine factor Xa (setting [2]), the “V0 / Vi” value amounted to 0.96; the vinit was 18.764 and 18.473.
As for `Oc1ccccc1N1CCCCC1` [SX-A12], the “V0 / Vi” value was 0.93 on human thrombin (setting [1]), 1.21 at bovine factor Xa (setting [7]), 1.14 at bovine factor Xa (setting [8]) and 1.24 on bovine factor Xa (setting [2]). In addition, the vinit at human thrombin (setting [1]) is 34.073 and 33.6; on bovine factor Xa (setting [7]), 13.208 and 13.684 and 13.54; on bovine factor Xa (setting [8]), 30.42 and 30.848 and 34.37; at bovine factor Xa (setting [2]) it was 11.714 and 11.643. Further, the “vinit, avrg.” value on bovine factor Xa (setting [7]) came out at 13.477. Moreover, the pKi was 3.22 at bovine factor Xa (substrate 100 µM) and 3.20 at bovine factor Xa (substrate 200 µM).
Regarding `c1ccc(-c2ccncc2)cc1` [SX-C2], on human thrombin (setting [1]), the “V0 / Vi” value was found to be 0.98; the vinit is 30.473 and 29.273. Moreover, at bovine factor Xa (setting [2]), the “V0 / Vi” value is 1.01; the vinit is 16.764 and 18.
Regarding `NC(=O)N1CCC(C(=O)O)CC1` [SX-D12], the “V0 / Vi” value was 1.08 on human thrombin (setting [3]), 1.04 on human thrombin (setting [4]), 1.12 on human thrombin (setting [1]) and 1.16 on bovine factor Xa (setting [2]). Also, the “vinit, avrg.” value is 24.461 at human thrombin (setting [3]) and 32.560 on human thrombin (setting [4]). For the same compound, the vinit on human thrombin (setting [3]) is 23.803 and 25.267 and 24.313; at human thrombin (setting [4]), 34.041 and 32.608 and 31.031; at human thrombin (setting [1]) it was 28.036 and 28.145; at bovine factor Xa (setting [2]), 11.2 and 13.7. In addition, the values for the pKi at human thrombin (setting [5]) and at human thrombin (setting [6]) were 3.56 and 3.48, respectively.
